Experimental data: patent US11865099B2, “Product based on iron bis-glycinate chelate and alginic acid and/or water-soluble salts thereof, formulations thereof, and pharmaceutical uses thereof” (LABORATORI BALDACCI S.P.A., priority 2015, dated 2024)

Experiment: Iron dissolution test, rotating basket apparatus, sample in dialysis membrane, 0.01 N HCl
Type: physicochemical
Settings: for percentage of dissolved iron: after 120 minutes; for dissolution rate: sample in 1.0 ml 0.01 N HCl (method A) in dialysis membrane, linear trend
[1] = 1.0 ml 0.01 N HCl, dialysis membrane

Protocol: The dissolution test was performed with rotating basket apparatus according to Eur. Pharmacopoeia 9th Edition choosing hydrochloric acid to simulate the gastric fluid.
A first series of assays were performed placing the product into a dialysis membrane with adequate volumes of hydrochloric acid (1.0 or 2.0 ml). In this case, the dissolution medium was 0.01 N (pH=2) hydrochloric acid, as the dialysis membrane is not compatible with pH values lower than 2.
Experimental method: the dialysis membrane (Spectrum Labs Spectra/Por 3; MWCO; 3500 kDa) was hydrated for one night (16 hours) in deionized water before the test. […] The bags were closed and placed into the basket of the dissolution apparatus.
Then, the basket was immersed in 100 ml of 0.01 N HCl and the dissolution test was carried out at a temperature of 37° C. with a rotation speed of 75 rpm/min, withdrawing, at appropriate times, samples of dissolution phase that were immediately replaced with fresh solvent in order to maintain constant sink condition.
Experimental method: after hydration of the dialysis membrane for one night in deionized water, three exactly weighted samples of Feralgina® having different weights (range 20-30 mg) were dissolved with 1.0 ml (method A) or with 2.0 ml (method B) of hydrochloric acid (0.01 N) and the resulting solutions were placed into the hydrated dialysis membrane. The bags were perfectly closed and placed into the basket of the dissolution apparatus. […] The basket was immersed in 100 ml of 0.01 N HCl at a temperature of 37° C., with a rotation speed of 75 rpm/min, collecting samples of dissolution medium at appropriate times immediately replaced with fresh solvent in order to keep the dissolution constant (sink condition).
The dissolution tests of TecnoFERPlus were performed with two different experimental methods that involved, in one case, the use of the dialysis membrane and experimental conditions similarly to those followed for iron sulfate and iron bisglycinate with different volumes of hydrochloric acid 0.01 N, and in the second one, the use of TecnoFERPlus (capsule) without the dialysis membrane.

| SMILES | percentage of dissolved iron [1] | dissolution rate [min⁻¹] | amount of iron dissolved in the medium, of the total content (after 15 minutes, 1.0 ml 0.01 N HCl, dialysis membrane) |
| --- | --- | --- | --- |
| O=S(=O)([O-])[O-].[Fe+2] [iron sulphate] | about 61% | 0.439 |  |
| NCC(=O)[O][Fe][O]C(=O)CN [Iron bis-glycinate chelate] | about 60% | 0.378 | about 20% |
